Experimental data taken from US20260250247A1, “NOVEL INDOLINE DERIVATIVE AND USE THEREOF” (CK REGEON INC., priority 2023, published 2026).

Columns and labels:
[1] = test system: lipid droplets / PPARγ in liver tissue; test: Liver Oil Red O staining and PPARγ immunohistochemistry in MASH mice; format: in vivo, C57BL/6N mice; details: 25 mg/kg/day orally for 4 weeks
Experimental: (§1) Five-week-old wild-type male C57BL/6N mice were purchased from Orient Bio Co., Ltd. They were allowed to acclimate to the laboratory environment for one week. Mice weighing 18-20 g on average were used in the experiment. To ensure ethical and scientific validity and efficient management of animal experiments, the experiment was conducted with the approval of the Institutional Review Board (IACUC-A-202205-1472-01) of Severance Hospital, Yonsei University College of Medicine.
The mice were divided into a normal group (NCD) and a high-fat diet group (HFD). The normal group (NCD) was fed a normal chow diet (NCD, Teklad Global 18% protein rodent diet), and the high-fat diet group (HFD) was fed a high-fat diet (HFD, D12492) in which fat accounted for 60% of the total calories, for 8 weeks.
Mice induced with metabolic dysfunction-associated steatohepatitis (MASH) (hereinafter, referred to as MASH or MASH group) were prepared by administering CCl4 intraperitoneally twice a week for 4 weeks after feeding the high-fat diet (HFD) for 8 weeks. The […] was diluted with corn oil at a ratio of 1:19 and injected at a dosage of 2 mL/kg. The normal group (NOD) was administered the same volume of physiological saline.
The animals were divided into 7 groups, each with 10 animals.
It was investigated whether the accumulation of triglycerides in the liver is suppressed effectively. For this purpose, liver tissue was extracted from each group, and it was prepared into 10-μm thick cryosections, which were then stained with Oil Red O. Details are as follows. After preparing the 7 groups, the animals were euthanized using carbon dioxide and the liver tissues were extracted. A certain area of the extracted liver tissue was cryosectioned to 10 μm thickness, fixed in 4% neutral paraformaldehyde for 20 minutes at room temperature, and washed with 70% isopropanol (Duksan Pure Chemicals). After staining with the Oil Red O (Sigma-Aldrich) reagent for 20 minutes, the sections were washed thoroughly three times with distilled water. The tissue was counterstained with Mayer's hematoxylin. Then, Oil Red O staining images were visualized using a bright-field microscope (Nikon TE-2000U).
After preparing the 7 groups, the animals were sacrificed using carbon dioxide and the liver tissues were extracted. The extracted tissues were fixed in 4% neutral paraformaldehyde and embedded in paraffin to prepare sections. The paraffin sections were cut to 4-μm thickness, deparaffinized, and then rehydrated. For antigen exposure, slides were autoclaved in a 10 mM sodium citrate buffer (pH 6.0). To block endogenous peroxidase activity prior to peroxidase IHC analysis, the tissues were incubated with 0.3% H2O2 for 10 minutes. The incubated sections were treated with phosphate-buffered saline (PBS) containing 10% NGS and 0.3% Tween-20 for 1 hour at room temperature, treated with primary antibodies of anti-PPARγ (1:50; Abcam), and incubated overnight at 4° C.
The sections treated with the primary antibodies were washed with PBS and incubated with biotinylated anti-mouse (1:400; Dako) or anti-rabbit (1:400; Dako) secondary antibodies for 1 hour at room temperature. The sections incubated with the secondary antibodies were stained with 3,3′-diaminobenzidine (DAB; Dako) for 3-7 minutes and then counterstained with Mayer's haematoxylin. All incubations were performed in a humid chamber. After the staining, images were taken and analyzed using a bright-field microscope (Nikon TE-2000U).

[2] = test system: mice induced with metabolic dysfunction-associated steatohepatitis (MASH); test: Liver morphology, H&E histology and MAFLD activity score in MASH mice; format: in vivo, C57BL/6N mice; details: 25 mg/kg/day orally for 4 weeks
Experimental: as §1
The mice were divided into a normal group (NCD) and a high-fat diet group (HFD). The normal group (NCD) was fed a normal chow diet (NCD, Teklad Global 18% protein rodent diet), and the high-fat diet group (HFD) was fed a high-fat diet (HFD, D12492) in which fat accounted for 60% of the total calories, for 8 weeks. […]
After preparing the 7 groups, the animals were sacrificed using carbon dioxide and the liver tissues were extracted. […] Twenty randomly selected microscopic fields were photographed and analyzed using a Nikon bright-field optical microscope (Nikon TE-2000U).
After preparing the 7 groups, the animals were sacrificed using carbon dioxide and the liver tissues were extracted. After staining the liver tissues with H&E, scores were calculated using the MAFLD activity scoring system. […]

3T3-L1 pre-adipocytes = test: Inhibition of adipocyte differentiation and lipid accumulation, Oil Red O; format: cell-based; details: Mus musculus, 192 h; 3T3-L1, compound 1 μM, MDI-induced differentiation for 8 days, Oil Red O eluted, absorbance 544 nm; read-out: lipid accumulation rate
Experimental: 3T3-L1 cells were seeded in a 6-well plate at a density of […] cells per well. The cells were grown to 100% confluency in Dulbecco's modified Eagle's medium (DMEM) supplemented with 10% bovine calf serum (BCS; GIBCO). Two days after reaching 100% confluency, differentiation was induced with or without treatment with the indoline compound at a concentration of 1 μM in DMEM containing 10% fetal bovine serum (FBS; GIBCO) and MDI (520 μM methylisobutylxanthine (IBMX; Sigma-Aldrich), 1 μM dexamethasone (Sigma-Aldrich), and 5 μM insulin (GIBCO)). On day 3, the medium was replaced with DMEM containing 10% FBS and 5 μM insulin with or without the indoline compound, and then with a fresh identical medium every 2 days. After differentiation for 8 days, the culture medium was removed, and the cells were washed with PBS and then fixed with 10% formaldehyde for 1 hour. After removing the 10% formaldehyde, the cells were washed thoroughly with distilled water. After that, 60% isopropanol was added and immediately then removed. After washing with distilled water, lipid droplets were stained with an Oil Red O dye solution for 20 minutes and then washed with distilled water. The cells were counterstained with Mayer's hematoxylin. Oil Red O images were visualized using a bright-field microscope (Nikon TE-2000U). To quantify the accumulated lipids, Oil Red O was eluted by adding isopropanol, and absorbance was measured spectrophotometrically at 544 nm using a multi-plate reader.
As A3051 (KY19382) and A3334, self-developed and synthesized materials were used. As BIO, or GSK 3 Inhibitor IX, also known as 6-bromoindirubin-3′-oxime, HY-10580 was purchased commercially.
In FIG. 2, the undifferentiated group (Un Diff) refers to undifferentiated adipocytes, or preadipocytes that had not been induced to differentiate, and the differentiated group (Diff) refers to fully differentiated adipocytes.

N#Cc1ccc2c(c1)/C(=C1/Nc3ccccc3C1=O)C(=O)N2 [5-cyanoindirubin]
lipid droplet formation and lipid infiltration in liver, Oil Red O staining [1]: no significant difference was observed | steatosis / lipid droplets in liver tissue, H&E staining [2]: steatosis was also confirmed clearly | fatty liver, morphological observation of liver tissue ([2]; vs MASH group (vehicle)): fatty liver was not alleviated significantly | activity at 1 µM (3T3-L1 pre-adipocytes): 79%
